Reference: ChEMBL document CHEMBL3585298, “Combination of 4-anilinoquinazoline and rhodanine as novel epidermal growth factor receptor tyrosine kinase inhibitors” (Bioorg Med Chem, 2015)

How the values were obtained:
[1] = tested on: A549; assay: Antiproliferative activity against human A549 cells assessed as cell growth by MTT assay; format: functional, cell-based
[2] = tested on: HepG2; assay: Antiproliferative activity against human HepG2 cells assessed as cell growth by MTT assay; format: functional, cell-based
[3] = target: Epidermal growth factor receptor (Homo sapiens, UniProt P00533); assay: Inhibition of recombinant EGFR (unknown origin) assessed as inhibition of autophosphorylation after 1 hr by DELFIA/Time-resolved fluorometry
Epidermal growth factor receptor, sequence (P00533 whole entry): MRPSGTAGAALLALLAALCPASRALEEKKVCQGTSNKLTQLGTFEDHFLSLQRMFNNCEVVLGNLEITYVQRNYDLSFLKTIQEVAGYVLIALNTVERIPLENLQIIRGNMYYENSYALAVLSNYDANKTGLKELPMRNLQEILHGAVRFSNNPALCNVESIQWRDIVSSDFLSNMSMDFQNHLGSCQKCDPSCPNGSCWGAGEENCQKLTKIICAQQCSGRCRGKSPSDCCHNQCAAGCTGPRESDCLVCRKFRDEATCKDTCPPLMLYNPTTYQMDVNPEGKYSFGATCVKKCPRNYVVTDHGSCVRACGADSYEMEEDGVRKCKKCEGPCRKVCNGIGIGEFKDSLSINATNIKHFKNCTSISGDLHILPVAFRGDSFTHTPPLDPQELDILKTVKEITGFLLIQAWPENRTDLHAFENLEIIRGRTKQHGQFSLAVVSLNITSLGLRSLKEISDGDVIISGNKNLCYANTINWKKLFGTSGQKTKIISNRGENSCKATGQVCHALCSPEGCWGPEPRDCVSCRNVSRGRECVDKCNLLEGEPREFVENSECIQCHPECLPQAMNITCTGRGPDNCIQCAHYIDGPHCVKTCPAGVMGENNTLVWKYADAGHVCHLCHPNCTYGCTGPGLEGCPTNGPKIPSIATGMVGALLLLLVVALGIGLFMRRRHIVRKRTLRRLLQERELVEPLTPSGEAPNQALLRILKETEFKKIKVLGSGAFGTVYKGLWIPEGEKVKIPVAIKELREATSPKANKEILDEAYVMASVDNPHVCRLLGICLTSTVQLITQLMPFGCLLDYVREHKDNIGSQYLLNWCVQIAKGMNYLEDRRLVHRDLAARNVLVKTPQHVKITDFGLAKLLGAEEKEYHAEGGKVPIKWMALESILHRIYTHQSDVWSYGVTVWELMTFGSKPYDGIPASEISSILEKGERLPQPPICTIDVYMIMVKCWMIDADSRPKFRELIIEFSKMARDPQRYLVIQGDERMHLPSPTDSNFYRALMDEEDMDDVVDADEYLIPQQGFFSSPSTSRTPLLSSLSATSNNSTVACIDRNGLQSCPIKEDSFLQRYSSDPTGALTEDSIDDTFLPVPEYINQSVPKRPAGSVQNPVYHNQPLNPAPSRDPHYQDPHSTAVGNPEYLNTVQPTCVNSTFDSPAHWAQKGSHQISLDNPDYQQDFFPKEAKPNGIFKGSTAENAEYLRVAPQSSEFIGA

IC50 [1]	IC50 [2]	IC50 [3]	Structure (SMILES)
34.5 µM	18.2 µM		O=C1N=C(N2CCC[C@H]2C(=O)Nc2ccc3ncnc(Nc4cccc(Cl)c4)c3c2)S/C1=C/c1ccccc1F
6.1 µM	4.12 µM	8.1 µM	O=C1N=C(N2CCC[C@H]2C(=O)Nc2ccc3ncnc(Nc4cccc(Cl)c4)c3c2)S/C1=C/c1cccs1
> 50 µM	> 50 µM	31.4 µM	O=C1N=C(N2CCC[C@H]2C(=O)Nc2ccc3ncnc(Nc4cccc(Cl)c4)c3c2)S/C1=C/c1ccc(Br)s1
8.5 µM	4.5 µM	6.5 µM	Cc1cccc(/C=C2/SC(N3CCC[C@H]3C(=O)Nc3ccc4ncnc(Nc5cccc(Cl)c5)c4c3)=NC2=O)n1
3.1 µM	2.7 µM	3.1 µM	O=C1N=C(N2CCC[C@H]2C(=O)Nc2ccc3ncnc(Nc4cccc(Cl)c4)c3c2)S/C1=C/c1cccc(Br)n1
10.8 µM	6.4 µM	7.4 µM	O=C1N=C(N2CCC[C@H]2C(=O)Nc2ccc3ncnc(Nc4cccc(Cl)c4)c3c2)S/C1=C/c1cccnc1Cl
10.4 µM	8.5 µM	9.8 µM	O=C1N=C(N2CCC[C@H]2C(=O)Nc2ccc3ncnc(Nc4cccc(Cl)c4)c3c2)S/C1=C/c1cccnc1
> 50 µM	22.9 µM		O=C1N=C(N2CCC[C@H]2C(=O)Nc2ccc3ncnc(Nc4cccc(Cl)c4)c3c2)S/C1=C/c1ccc2ccccc2n1
> 50 µM	28.1 µM		O=C1N=C(N2CCC[C@H]2C(=O)Nc2ccc3ncnc(Nc4cccc(Cl)c4)c3c2)S/C1=C/c1ccccc1Cl
> 50 µM	27.6 µM		O=C1N=C(N2CCC[C@H]2C(=O)Nc2ccc3ncnc(Nc4cccc(Cl)c4)c3c2)S/C1=C/c1cccc(Cl)c1
> 50 µM	24.3 µM		O=C1N=C(N2CCC[C@H]2C(=O)Nc2ccc3ncnc(Nc4cccc(Cl)c4)c3c2)S/C1=C/c1ccccc1Br
> 50 µM	21.3 µM		O=C1N=C(N2CCC[C@H]2C(=O)Nc2ccc3ncnc(Nc4cccc(Cl)c4)c3c2)S/C1=C/c1cccc(Br)c1
18.7 µM	10.5 µM	7.6 µM	O=C1N=C(N2CCC[C@H]2C(=O)Nc2ccc3ncnc(Nc4cccc(Cl)c4)c3c2)S/C1=C/c1ccc(Cl)cc1
> 50 µM	22.1 µM		COc1ccccc1/C=C1/SC(N2CCC[C@H]2C(=O)Nc2ccc3ncnc(Nc4cccc(Cl)c4)c3c2)=NC1=O
> 50 µM	32.5 µM		O=C1N=C(N2CCC[C@H]2C(=O)Nc2ccc3ncnc(Nc4cccc(Cl)c4)c3c2)S/C1=C/c1ccccc1[N+](=O)[O-]
31.7 µM	19 µM		COc1ccc(/C=C2/SC(N3CCC[C@H]3C(=O)Nc3ccc4ncnc(Nc5cccc(Cl)c5)c4c3)=NC2=O)cc1
24.2 µM	15.4 µM	13.2 µM	O=C1N=C(N2CCC[C@H]2C(=O)Nc2ccc3ncnc(Nc4cccc(Cl)c4)c3c2)S/C1=C/c1ccc(-c2ccccc2)cc1
